Structures are written as SMILES.

The nature of data set [1]: Clearance in rat. To be noted: in vivo. In kind it is ADME, organism-based.
A short description of data set [2]: Partition coefficient (logP). In kind it is physicochemical. Particulars: octanol/water.
The nature of data set [3]: Oral bioavailability in rat. Particulars: in vivo. In kind it is ADME, organism-based.
A short description of data set [4]: Area under the plasma concentration-time curve in rat after peroral administration. In kind it is ADME, organism-based. To be noted: po.
Data set [5] can be described thus: Volume of distribution during steady state in rat. To be noted: in vivo.
A short description of data set [6]: Maximum plasma concentration in rat after peroral administration. In kind it is ADME, organism-based. On the set-up: route oral. To be noted: po.
A short description of data set [7]: Oral half-life in rat after peroral administration. To be noted: in vivo. In kind it is ADME, organism-based.
The subject of data set [8] is Mus musculus. As to the kind of experiment: In vivo insulin effect in db/db mice after oral treatment. In kind it is functional.
Data set [9] concerns Mus musculus. As to the kind of experiment: In vivo nonfasting blood glucose in db/db mice after oral treatment. In kind it is functional.
In data set [10] the test system is Mus musculus. As to the kind of experiment: In vivo nonfasting triglyceride in db/db mice after oral treatment. In kind it is functional.
The species named for data set [11] is Mus musculus. As to the kind of experiment: Area under blood glucose time curve after oral glucose test in mice. In kind it is functional.
Data set [12] addresses T1, Peroxisome proliferator-activated receptor delta (Homo sapiens, UniProt Q03181).
T1 sequence (Q03181 whole entry): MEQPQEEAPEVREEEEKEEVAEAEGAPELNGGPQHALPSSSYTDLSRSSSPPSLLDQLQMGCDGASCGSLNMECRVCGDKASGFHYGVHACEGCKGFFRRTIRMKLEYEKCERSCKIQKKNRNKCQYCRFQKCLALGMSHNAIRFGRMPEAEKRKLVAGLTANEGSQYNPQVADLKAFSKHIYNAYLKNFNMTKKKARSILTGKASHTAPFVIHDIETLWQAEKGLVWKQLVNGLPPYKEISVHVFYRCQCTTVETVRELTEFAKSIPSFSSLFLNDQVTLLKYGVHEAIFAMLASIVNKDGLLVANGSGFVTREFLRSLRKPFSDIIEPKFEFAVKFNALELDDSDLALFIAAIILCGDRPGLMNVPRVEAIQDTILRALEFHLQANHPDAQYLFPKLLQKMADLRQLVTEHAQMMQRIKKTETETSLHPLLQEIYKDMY
Description: In vitro transactivation of human Peroxisome proliferator activated receptor delta (hPPARdelta).

Data set [13] has as its target T2, Peroxisome proliferator-activated receptor alpha (Rattus norvegicus, UniProt P37230).
T2 sequence (P37230 whole entry): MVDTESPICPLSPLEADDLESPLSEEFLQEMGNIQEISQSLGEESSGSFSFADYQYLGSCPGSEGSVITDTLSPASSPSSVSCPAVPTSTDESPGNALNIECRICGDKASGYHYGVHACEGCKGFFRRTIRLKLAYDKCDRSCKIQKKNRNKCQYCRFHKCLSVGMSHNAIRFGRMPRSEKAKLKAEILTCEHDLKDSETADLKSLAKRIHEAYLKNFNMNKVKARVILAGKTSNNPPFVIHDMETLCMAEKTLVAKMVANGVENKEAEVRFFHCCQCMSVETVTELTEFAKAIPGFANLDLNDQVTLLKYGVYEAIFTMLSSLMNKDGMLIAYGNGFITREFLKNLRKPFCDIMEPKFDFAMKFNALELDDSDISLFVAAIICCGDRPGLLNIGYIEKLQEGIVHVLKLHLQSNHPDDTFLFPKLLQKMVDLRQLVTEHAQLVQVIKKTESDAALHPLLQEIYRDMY
Description: (§1) In vitro transactivation of rat Peroxisome proliferator activated receptor alpha.

In data set [14] the target is T3, Peroxisome proliferator-activated receptor alpha (Rattus norvegicus) (UniProt P37230).
T3 sequence (whole entry): T2 sequence (P37230 whole entry)
The description is as §1. On the set-up: concentration or dose not given beside the values.

For data set [15], the target named is T4, Peroxisome proliferator-activated receptor alpha (Homo sapiens, UniProt Q07869).
T4 sequence (Q07869 whole entry): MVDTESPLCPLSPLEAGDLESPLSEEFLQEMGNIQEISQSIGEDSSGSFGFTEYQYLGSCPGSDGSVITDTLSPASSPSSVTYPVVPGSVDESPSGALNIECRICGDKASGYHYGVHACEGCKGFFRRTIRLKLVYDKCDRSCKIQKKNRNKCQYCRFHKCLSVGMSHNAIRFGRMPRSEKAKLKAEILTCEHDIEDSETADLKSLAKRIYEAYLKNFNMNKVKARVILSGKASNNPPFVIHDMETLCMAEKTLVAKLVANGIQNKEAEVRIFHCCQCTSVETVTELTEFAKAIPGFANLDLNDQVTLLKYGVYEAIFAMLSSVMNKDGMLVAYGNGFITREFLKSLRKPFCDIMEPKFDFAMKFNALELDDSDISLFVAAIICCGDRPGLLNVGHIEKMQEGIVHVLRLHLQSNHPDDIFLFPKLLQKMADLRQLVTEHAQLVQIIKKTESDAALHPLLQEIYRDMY
Description: (§2) In vitro transactivation of human Peroxisome proliferator activated receptor alpha (hPPARalpha).

The target of data set [16] is T5, Peroxisome proliferator-activated receptor alpha (Homo sapiens) (UniProt Q07869).
T5 sequence (whole entry): T4 sequence (Q07869 whole entry)
Described as §2. On the set-up: concentration or dose not given beside the values.

Data set [17] has as its target T6, Peroxisome proliferator-activated receptor gamma (Homo sapiens, UniProt P37231).
T6 sequence (P37231 whole entry): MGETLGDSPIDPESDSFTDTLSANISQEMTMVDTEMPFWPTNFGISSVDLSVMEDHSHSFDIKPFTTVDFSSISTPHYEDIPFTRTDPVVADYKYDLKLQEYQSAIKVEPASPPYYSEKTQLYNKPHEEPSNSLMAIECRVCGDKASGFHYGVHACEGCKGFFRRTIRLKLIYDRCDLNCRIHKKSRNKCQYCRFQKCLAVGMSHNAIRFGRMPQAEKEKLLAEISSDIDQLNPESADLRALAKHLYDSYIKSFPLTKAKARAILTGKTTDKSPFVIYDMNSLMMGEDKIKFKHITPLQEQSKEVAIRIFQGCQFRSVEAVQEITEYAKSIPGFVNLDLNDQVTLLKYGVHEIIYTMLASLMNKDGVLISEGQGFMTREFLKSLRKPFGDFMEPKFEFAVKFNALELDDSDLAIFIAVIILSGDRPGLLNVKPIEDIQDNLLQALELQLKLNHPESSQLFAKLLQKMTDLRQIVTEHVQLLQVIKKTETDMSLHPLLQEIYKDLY
Description: In vitro transactivation of human Peroxisome proliferator activated receptor gamma

In general, clearance refers to the rate of elimination divided by the concentration. The logP is the decadic logarithm of the partition coefficient of the neutral form, usually between octanol and water. As a reminder, the bioavailability is dose-corrected exposure relative to a reference, in per cent. In general, AUC refers to the area under the concentration-time curve, a measure of exposure. The term Vd denotes the apparent volume that relates the amount in the body to the concentration in plasma or blood. A word on the Cmax: it is the peak of the concentration-time curve. In general, half-life refers to how long it takes for the measured level to halve. Usually ED50 stands for the dose that gives a 50% effect, or the effect in half of the subjects. By EC50 is commonly meant the concentration needed to bring the measured effect to its halfway point. `CCO[C@@H](Cc1ccc(OC/C=C/C#Cc2cccc(C#C/C=C/COc3ccc(C[C@H](OCC)C(=O)O)cc3)c2)cc1)C(=O)O` yielded a clearance in data set [1] of 0.23 mL/min/kg. Besides, the lipophilicity (logP) in [2] came to 4.81. Further, the bioavailability in data set [3] turned out to be 63%. Further, the AUC in data set [4] was 84900 ng·h/mL. In [5], this molecule displayed a Vd of 0.16 L/kg. Besides, the concentration in data set [6] peaked (Cmax) at 7210 ng/mL. Moreover, the half-life in data set [7] was 6.7 h. The ED50 came to 0.6 mg/kg in the data set on Mus musculus [8]; 0.9 mg/kg in the data set with Mus musculus [9]; 0.1 mg/kg in the data set on Mus musculus [10]; 0.5 mg/kg in the data set listed under Mus musculus [11] (Mus musculus, Blood, po). Further, the Max reduction in the data set on Mus musculus [8] stood at 86%; in the data set on Mus musculus [9] it was 54%; with Mus musculus [10], 46%; in the data set filed under Mus musculus [11], 60%. Further, the EC50 in data set [12] is 10.5 µM; in data set [13], 4.6 µM; in data set [15] it was 0.3 µM; in data set [17], 1.65 µM. The Fold activation in data set [14] was 109%; in [16] it was 193%.

Values taken from ChEMBL document CHEMBL1145887, “Large dimeric ligands with favorable pharmacokinetic properties and peroxisome proliferator-activated receptor agonist activity in vitro and in vivo” (J Med Chem, 2003).
